Experimental data taken from US20070015138A1, “Methods for identifying agents and conditions that modulate neurogenesis” (BrainCells, Inc., priority 2005, published 2007).
“Also recorded” adds a separate entry of the source. Where two headings read alike, the source gives them in different places.

What was measured:
[1] = system: cultured human neural stem cells (hNSCs); assay: Automated differentiation assay using monolayer cultures, neuronal lineage (Tuj1 staining per Hoechst-counted cell); assay type: cell-based; conditions: for EC50: Homo sapiens, Neural stem cell; for effect on differentiation along a neuronal lineage, agent by itself / concentration at which the agent by itself affected neuronal differentiation: no constitutive factor; for effect on differentiation along a neuronal lineage, agent by itself: normalized to neuronal positive control; for effect on neuronal differentiation, AMPA combined with M6: AMPA about 3 nM to about 10 μM plus 10 μM M6 (cyclo-(Pro-Gly)), FIG. 5
Method: (§1) Cells were cultured in mitogen free test media or exposed to differentiating agents as described herein immediately upon plating of cells. Stable, differentiation-compatible culture may be used with automated equipment (like Perkin Elmer Evolution P3, Perkin Elmer Multiprobe II Plus and Bio-Tek ELx405 Select CW as non-limiting examples) to replace 50% of media with newly prepared media and differentiation agent between 3 to 4 days after commencement of the experiment.
(§2) Measurement of the resulting NSC differentiation may be performed by fixation and staining as described herein and subsequent use of automated equipment (InCell Analyzer high throughput imaging system) to take multiple pictures per well, at multiple wavelengths. Quantification of neuronal differentiation was performed by measuring the amount of Tuj1 staining and dividing the number by the number of cells as determined through automated counting of Hoechst stained cell nuclei. Quantification of astocytic differentiation was performed by measuring the amount of GFAP staining and dividing the number by the number of cells as determined through automated counting of Hoechst stained cell nuclei. […] An agent's effect on astrocyte or oligodendrocyte differentiation can be determined in a similar manner using other cell type specific antibodies, examples of which include GFAP (astrocytes), NF-200 (neurons), and O1 and O4 (oligodendrocytes).

[2] = system: cultured human neural stem cells (hNSCs); assay: Automated differentiation assay using monolayer cultures, astrocyte lineage (GFAP staining per Hoechst-counted cell); assay type: cell-based; conditions: for effect on differentiation along an astrocyte lineage (astrogenesis), agent alone: normalized to astrocyte positive control
Method: as §1, §2

[3] = system: NSC monolayer culture
[4] = system: human NSCs in monolayer culture; assay: Automated proliferation (growth or trophism) assay using monolayer cultures, test media with mitogens; assay type: cell-based; conditions: control conditions, across a range of concentrations; FIG. 1B
Method: Sterile, tissue culture treated, clear bottom 96-well plates (e.g., Costar 3712) are coated 10 μg/ml poly-L-lysine and 50 μg/ml mouse Laminin, as described in Example 2. 10-15 neurospheres in maintenance media (see, Example 2) are transferred (estimated at 100,000 cells/sphere) to an eppendorf tube and enzymatically dissociated as described in Example 2. Approximately 50,000 cells are plated per 100 μl/well. The cells are allowed to attach by incubating for approximately one hour, and 100 μl/well of test compounds are added. […] Compounds are prepared using Perkin-Elmer MultiPROBE II PLUSHT EX (Protocol 8-point HumanCRC96-well) in test media (30% Hams F12 (Gibco 11765-062), 70% DMEM (Gibco 11965-118), 1% PSA (Gibco-BRL 15420-062), 1% N2 (Gibco-BRL 17502-048), 20 ng/ml EGF (Sigma E9644), 10 ng/ml LIF (Chemicon LIF100), 20 ng/ml bFGF (R and D 233-FB) and 5 μg/ml heparin (Sigma H3149)).
Each plate contains controls containing test media (positive control) and test media without growth factors (negative control). Plates are incubated at 37° C. and 5% CO2 for a total of 7 days. At day 4, the cell plates are aspirated and fresh compound/media is added. After incubation, the wells are washed 1× with 0.1M Tris-Buffered Saline (TBS), and incubated at room temperature for 30 minutes with 100 μl/well of Fixing/Nuclear staining solution (8 μg/ml Hoechst 33342 and 3.7% Formaldehyde in 0.1M TBS). […]

[5] = system: Human NSCs plated as monolayers
Method: Human NSCs maintained as neurospheres are plated as monolayers on laminin/poly-L-lysine coated plates and assayed for proliferation and/or differentiation, as described in Examples 3 and 4, except that the test media is modified to include one or more neurotransmitters at various concentrations to facilitate detection of neurogenesis modulating agents. […] Proliferation is measured as the mean cell intensity per microscopic field of view, with the mean cell intensity for control experiments subtracted. Data is plotted as a dose response curve of dopamine with and without 2 independent concentrations of 5-HTP.

[6] = system: human NSCs cultured as monolayers in 96-well plates; conditions: DMSO vehicle max 0.3%, FIG. 8
Method: Briefly, cells were cultured as described in Example 5 with the presence of histamine. The histamine was dissolved in DMSO as a vehicle, and cells were exposed to a maximum concentration of 0.3% vehicle. Cell number was determined by fixation and exposure of cells to Hoechst stain. Image acquisition was automated with the use of an InCell Analyzer 1000, and the number of cells determined by automated counting of stained nuclei. […] (see FIG. 8).
Toxic effects of agents can be determined in a similar manner. NSCs were exposed to BAY-60-7550 as described above and cell number was quantified.

`NC[C@H](O)c1ccc(O)c(O)c1` [norepinephrine] was tested, and the EC50 ([1]; mean of two independent experiments, FIG. 3A, read-out: EC50, neuronal differentiation, agent by itself) was roughly 4 µM, the “effect on differentiation along a neuronal lineage, agent by itself” value [1] was “significantly enhanced neuronal differentiation” and the “effect on differentiation along an astrocyte lineage (astrogenesis), agent alone” value [2] was “no effect”.
`CN1CC[C@]23c4c5ccc(O)c4O[C@H]2[C@@H](O)C=C[C@H]3[C@H]1C5` [morphine] was tested, and the “effect on DHEA-driven normal NSC neuronal differentiation” value ([3]; simultaneous exposure with DHEA) was “inhibition of normal NSC differentiation”.
For `CC(N)Cc1ccccc1` (stereo not drawn) [amphetamine], the EC50 ([1]; plus 10 μM dopamine, FIG. 2B, read-out: EC50, neuronal differentiation in combination with dopamine) was roughly 30 µM, the “effect on differentiation along a neuronal lineage, agent by itself” value [1] was “did not have a significant effect” and the “effect on neuronal differentiation in combination with dopamine as constitutive factor” value ([1]; plus 10 μM dopamine) was “significantly enhanced neuronal differentiation”.
For `Cc1onc(O)c1CC(N)C(=O)O` (stereo not drawn) [AMPA, alpha-amino-3-hydroxy-5-methyl-4-isoxazolepropionic acid], the “effect on neuronal differentiation, AMPA combined with M6” value [1] was “significantly enhanced levels of neuronal differentiation”, the “concentration at which the agent by itself affected neuronal differentiation” value [1] was “about 30 μM” and the “effect on differentiation along a neuronal lineage, agent by itself” value [1] was “only a slight effect”.
With `N[C@@H](Cc1c[nH]c2ccc(O)cc12)C(=O)O` [5-HTP, 5-Hydroxy L tryptophan] the “concentration at which the agent by itself affected neuronal differentiation” value [1] was no less than 4 µM and the “effect on differentiation along a neuronal lineage, agent by itself” value [1] was “increased differentiation of NSCs into neurons; also recorded: significantly enhanced neuronal differentiation”.
cyclo(Pro-Gly) [M6] was tested, and the “effect on neuronal differentiation, AMPA combined with M6” value [1] was “potentiates AMPA activity”.
`O=C1CC[C@@]2(O)[C@H]3Cc4ccc(O)c5c4[C@@]2(CCN3CC2CC2)[C@H]1O5` [naltrexone] was tested, and the “toxicity or proliferation (cell number dose-response)” value [4] was “non-neurogenic (non-tropic) and non-toxic; also recorded: neither toxic nor trophic” and the “rescue of morphine-inhibited neuronal differentiation” value ([3]; cells exposed to both morphine and naltrexone, FIG. 10) was “rescue of neurogenesis; also recorded: rescues opioid-induced inhibition”.
`NCCc1ccc(O)c(O)c1` [dopamine] was tested, and the “effect on NSC proliferation (mean cell intensity) with 10 μM 5-HTP” value ([5]; in the presence of 10 μM 5-HTP) was “substantially enhanced”, the “effect on NSC proliferation (mean cell intensity) with 30 μM 5-HTP” value ([5]; in the presence of 30 μM 5-HTP, particularly at higher test agent concentrations) was “further enhanced” and the “effect on NSC proliferation (mean cell intensity), test agent alone” value ([5]; media-only background subtracted) was “small dose-dependent effect”. For the same compound, the “concentration at which the agent by itself affected neuronal differentiation” value [1] was no less than 1 µM, the “effect on differentiation along a neuronal lineage, agent by itself” value [1] was “minor effect; also recorded: only a slight effect” and the “effect on differentiation along a neuronal lineage, agent by itself” value ([1]; listed as Dopamine) was “did not promote differentiation”. The “effect on neuronal differentiation in combination with 5-HTP as constitutive factor” value ([1]; plus 10 μM or 30 μM 5-HTP, FIG. 4B) was “concentration-dependent increase in NSC differentiation; also recorded: significantly enhanced neuronal differentiation”.
`O=C1CC2(CCCC2)CC(=O)N1CCCCN1CCN(c2ncccn2)CC1` [buspirone] was tested, and the “effect on differentiation along a neuronal lineage, agent by itself” value [1] was “promotes differentiation into both neurons and astrocytes” and the “effect on differentiation along an astrocyte lineage (astrogenesis), agent alone” value [2] was “promotes differentiation into both neurons and astrocytes”.
`COc1ccc2[nH]cc(CCNC(C)=O)c2c1` [melatonin] was tested, and the “effect on neuronal differentiation, buspirone with melatonin” value ([1]; increasing melatonin added to buspirone concentration-response curve, FIG. 11 upper panel) was “differentiation into neurons is preserved”, the “effect on astrocyte differentiation, buspirone with melatonin” value ([2]; increasing melatonin added to buspirone concentration-response curve, FIG. 11 lower panel) was “repression of astrocytes” and the “effect on differentiation along an astrocyte lineage (astrogenesis), agent alone” value [2] was “no effect on astrogenesis”.
With `COC(=O)C(c1ccccc1)C1CCCCN1` (stereo not drawn) [methylphenidate] the “concentration at which the agent by itself affected neuronal differentiation” value [1] was “greater than 1 μM”, the “effect on differentiation along a neuronal lineage, agent by itself” value [1] was “only a slight effect” and the “effect on neuronal differentiation in combination with dopamine as constitutive factor” value ([1]; plus 10 μM dopamine) was “significantly enhanced the degree of neuronal differentiation”.
For `NCCc1c[nH]cn1` [histamine], the “cell proliferation / cell growth (cell number), trophic effect” value [6] was “promotes increased cell proliferation” and the “cell proliferation / cell growth (cell number), trophic effect” value ([6]; listed as Histamine) was “promoted cell growth in a concentration-dependent manner”.
With `C[C@]12CC[C@H](O)CC1=CC[C@@H]1[C@@H]2CC[C@]2(C)C(=O)CC[C@@H]12` [DHEA] the “effect on differentiation along a neuronal lineage, agent by itself” value [1] was “promotes differentiation”.
